Measured values published in US20070048356A1, “Antimicrobial treatment of nonwoven materials for infection control” (priority 2005, published 2007).

Assays:
Experiment in all cases: Dynamic Shake Flask (based on ASTM E 2149-01) on treated nonwoven
Type in all cases: cell-based
[1] = test system: P. aeruginosa (ATCC 9027); details: Table 13
Description: (§1) The test organisms are grown in 25 mL appropriate broth medium for about 24±2 hours at 37±2° C. in a wrist action shaker. The bacterial culture is then transferred by placing about 100 μL aliquot in 25 mL of broth and grown again for about 24±2 hours at 37±2° C. The organisms are then centrifuged and washed three times with phosphate buffered saline (PBS). The organisms are then suspended in PBS to obtain an inoculum of approximately 1×10^8 CFU/mL.
(§2) The test articles and control swatches are exposed to an ultraviolet light source for about 5-10 minutes per side before testing to assure that the swatches are sanitized prior to inoculation with the bacteria. The test materials are brought into contact with a known population of test bacteria from the inoculum for a specified period of time. A sample is then plated at the end of the exposure time to enumerate the surviving bacteria. The log10 reduction form the control material and the original population is calculated using the following formula: Log10 Control*−Log10 CFU/swatch Test Article=Log10 Reduction
[…] This buffer solution contains a chemical to de-activate or “neutralize” the antimicrobial agent to (a) stop the active agent from killing the organisms after the designated time period and (b) to prevent artifacts that may arise from exposing the microorganisms to the antimicrobial in solution rather than solely on the substrate. Because each chemical used as an antimicrobial agent is a little different (ie: cationic, nonionic, metal, etc), a different neutralizer was likely added in each case to shut off the antimicrobial at the desired end point of the experiment. […] The neutralizer employed may be selected from a list that is commonly used in the field. […] Testing Mat.

[2] = test system: S. aureus (ATCC 6538); details: Table 12
[3] = test system: A. Niger (ATCC 16404); details: Table 14, Spunbond
Description: as §1, §2
[…] This buffer solution contains a chemical to de-activate or “neutralize” the antimicrobial agent to (a) stop the active agent from killing the organisms after the designated time period and (b) to prevent artifacts that may arise from exposing the microorganisms to the antimicrobial in solution rather than solely on the substrate. Because each chemical used as an antimicrobial agent is a little different (ie: cationic, nonionic, metal, etc), a different neutralizer was likely added in each case to shut off the antimicrobial at the desired end point of the experiment. […] The neutralizer employed may be selected from a list that is commonly used in the field. These include, non-ionic degtergents, Bisulphate, lecithin, leethen broth, thiosulfate, thioglycolate, and pH buffers, Method similar to those described in American Society for Testing and Materials, Standard Practices for Evaluating Inactivators of Antimicrobial Agents Used in Disinfectant, Sanitizer, Antiseptic, or Preserved Products, Amer. Soc. Testing Mat. E 1054-91 (1991) can be used.

[4] = test system: C. Albicans (ATCC 10231); details: Table 15, SMS

Substance	Dynamic Shake Flask Log10 Reduction ([1]; Meltblown, contact time 1 min) [Log10]	Dynamic Shake Flask Log10 Reduction ([1]; Meltblown, contact time 5 min) [Log10]	Dynamic Shake Flask Log10 Reduction ([1]; Meltblown, contact time 15 min) [Log10]	Dynamic Shake Flask Log10 Reduction ([1]; SMS, contact time 1 min) [Log10]	Dynamic Shake Flask Log10 Reduction ([1]; SMS, contact time 5 min) [Log10]	Dynamic Shake Flask Log10 Reduction ([1]; SMS, contact time 15 min) [Log10]	Dynamic Shake Flask Log10 Reduction ([1]; Spunbond, contact time 1 min) [Log10]	Dynamic Shake Flask Log10 Reduction ([1]; Spunbond, contact time 5 min) [Log10]	Dynamic Shake Flask Log10 Reduction ([1]; Spunbond, contact time 15 min) [Log10]	Dynamic Shake Flask Log10 Reduction ([2]; Meltblown, contact time 1 min) [Log10]	Dynamic Shake Flask Log10 Reduction ([2]; Meltblown, contact time 5 min) [Log10]	Dynamic Shake Flask Log10 Reduction ([2]; Meltblown, contact time 15 min) [Log10]	Dynamic Shake Flask Log10 Reduction ([2]; SMS, contact time 1 min) [Log10]	Dynamic Shake Flask Log10 Reduction ([2]; SMS, contact time 5 min) [Log10]	Dynamic Shake Flask Log10 Reduction ([2]; SMS, contact time 15 min) [Log10]	Dynamic Shake Flask Log10 Reduction ([2]; Spunbond, contact time 1 min) [Log10]	Dynamic Shake Flask Log10 Reduction ([2]; Spunbond, contact time 5 min) [Log10]	Dynamic Shake Flask Log10 Reduction ([2]; Spunbond, contact time 15 min) [Log10]	Dynamic Shake Flask Log10 Reduction ([3]; contact time 1 min) [Log10]	Dynamic Shake Flask Log10 Reduction ([3]; contact time 5 min) [Log10]	further results
N-Alkyl Polyglycoside [1.0% Alkyl Polyglycoside]	2.38	4	4	0.37	0.37	0.36	0.61	0.41	0.41	2.97	4	4	0	0	0	0	0	0	0.64	0.53	Dynamic Shake Flask Log10 Reduction ([3]; contact time 15 min): 0.50 Log10; Dynamic Shake Flask Log10 Reduction ([4]; contact time 1 min): 0.59 Log10; Dynamic Shake Flask Log10 Reduction ([4]; contact time 5 min): 0.08 Log10; Dynamic Shake Flask Log10 Reduction ([4]; contact time 15 min): 0.19 Log10
Chitosan glycolate [1.0% Chitosan]	0.5	0.62	0.61	0.81	4	4	0.47	2.16	4	0.26	0.21	0.25	0.03	0.57	1.03	0	0.64	2.05	0.11	0.27	Dynamic Shake Flask Log10 Reduction ([3]; contact time 15 min): 0.31 Log10; Dynamic Shake Flask Log10 Reduction ([4]; contact time 1 min): 0.04 Log10; Dynamic Shake Flask Log10 Reduction ([4]; contact time 5 min): 0.13 Log10; Dynamic Shake Flask Log10 Reduction ([4]; contact time 15 min): 1 Log10
PG-Hydroxyethylcellulose Cocodimonium Chloride	0.34	0.35	0.42	4	4	4	4	4	4	0.09	0.2	0.44	1.38	2.97	4	0.33	0.63	1.74	0.00	0.01	Dynamic Shake Flask Log10 Reduction ([3]; contact time 15 min): 0.07 Log10; Dynamic Shake Flask Log10 Reduction ([4]; contact time 1 min): 1.25 Log10; Dynamic Shake Flask Log10 Reduction ([4]; contact time 5 min): 2.12 Log10; Dynamic Shake Flask Log10 Reduction ([4]; contact time 15 min): 2.56 Log10
